Counter-ions that a name gives are not always drawn. Like-named read-outs stand apart in the source and are kept apart here.
Legend:
[1] = test system: LP-1 cell line (FGF-1/Heparin induced pERK); test: Cell-based pERK ELISA, LP-1 cells; settings: Homo sapiens; for IC50: LP-1, read-out: LP-1 pERK ELISA (μM)
[2] = test system: parental wild-type Ba/F3 cells; test: Ba/F3 (WT) cell proliferation assay (Alamar Blue); assay type: cell-based; settings: Mus musculus
[3] = BaF3, read-out: BaF3 WT prolif, % inhibition
[4] = BaF3, 72 h, read-out: BaF3 WT prolif (μM)
[5] = BaF3, 72 hours, Alamar Blue, read-out: BaF3 WT prolif
[6] = LP-1, read-out: LP-1 pERK ELISA, % inhibition

SMILES | IC50 [1] [µM] | also measured
O=C(NCC(F)(F)F)Nc1cncc(-c2cnc3cc(-c4nncs4)ccn23)c1 [Example 24, 1-[5-(7-[1,3,4]Thiadiazol-2-ylimidazo[1,2-a]pyridin-3-yl)pyridin-3-yl]-3-(2,2,2-trifluoroethyl)urea hydrochloride] | 0.57 | inhibition at 10 µM [2, 3]: 2.2%
CN1CC(n2cc(-c3ccn4c(-c5cccc(NC(=O)NCC(F)(F)F)c5)cnc4c3)cn2)C1 [Example 41, 1-(3-{7-[1-(1-Methyl-azetidin-3-yl)-1H-pyrazol-4-yl]-imidazo[1,2-a]pyridin-3-yl}-phenyl)-3-(2,2,2-trifluoro-ethyl)-urea formate] | 0.025 | IC50 [2, 4]: 2.8 µM
O=C(NCC(F)(F)F)Nc1cccc(-c2cnc3cc(/C=C/c4ccccn4)ccn23)c1 [Example 186] | 0.019 | IC50 [2, 5]: 0.32 µM
O=C(NCC(F)(F)F)Nc1cccc(-c2cnc3cc(-c4ccc(CCO)cc4)ccn23)c1 [Example 111, 1-(3-{7-[4-(2-Hydroxy-ethyl)-phenyl]-imidazo[1,2-a]pyridin-yl}-phenyl)-3-(2,2,2-trifluoro-ethyl)-urea formate] | 0.016 | IC50 [2, 4]: 0.18 µM
Nc1ccnc(-c2ccn3c(-c4cccc(NC(=O)NCC(F)(F)F)c4)cnc3c2)n1 [Example 110, 1-{3-[7-(4-Amino-pyrimidin-2-yl)-imidazo[1,2-a]pyridin-3-yl]-phenyl}-3-(2,2,2-trifluoro-ethyl)-urea] | 0.0917 | inhibition at 10 µM [2, 3]: 43%
Cn1cc(C#Cc2ccn3c(-c4cccc(NC(=O)NCC(F)(F)F)c4)cnc3c2)cn1 [Example 56, 1-{3-[7-(1-Methyl-1H-pyrazol-4-ylethynyl)-imidazo[1,2-a]pyridin-3-yl]-phenyl}-3-(2,2,2-trifluoro-ethyl)-urea formate] | 0.021 | IC50 [2, 4]: 4.6 µM
COc1ncc(-c2ccn3c(-c4cccc(NC(=O)NCC(F)(F)F)c4)cnc3c2)cc1C [Example 188] | 0.09 | IC50 [2, 5]: 0.43 µM
COc1cnc(-c2ccn3c(-c4cccc(NC(=O)NCC(F)(F)F)c4)cnc3c2)nc1N [Example 173] | 0.052 | inhibition at 3 µM [2, 3]: 29.5%; inhibition at 10 µM [2, 3]: 22%
Nc1ccn2c(-c3cccc(NC(=O)NCC(F)(F)F)c3)cnc2c1 [Example 115, 1-[3-(7-Aminoimidazol[1,2-a]pyridin-3-yl)phenyl]-3-(2,2,2-trifluoroethyl)urea] | – | inhibition at 10 µM [1, 6]: 0%
CN1CCN(c2ccc(-c3ccn4c(-c5cccc(NC(=O)NCC(F)(F)F)c5)cnc4c3)nn2)CC1 [Example 12, 1-(3-{7-[6-(4-Methylpiperazin-1-yl)pyridazin-3-yl]imidazo[1,2-a]pyridin-3-yl}phenyl)-3-(2,2,2-trifluoroethyl)urea] | 0.041 | IC50 [2, 5]: 3.7 µM
NC(=O)Nc1cccc(-c2cnc3cc(-c4ncccn4)ccn23)c1 [Compound 337] | 1.5 | inhibition at 10 µM [2, 3]: 23%
Cc1ccnc(-c2ccn3c(-c4cccc(NC(=O)NCC(F)(F)F)c4)cnc3c2)c1 [Example 97, 1-{3-[7-(4-Methyl-pyridin-2-yl)-imidazo[1,2-a]pyridin-3-yl]-phenyl}-3-(2,2,2-trifluoro-ethyl)-urea bis-hydrochloride] | 0.0081 | IC50 [2, 4]: 0.44 µM
NCCNc1nc(-c2ccn3c(-c4cccc(NC(=O)NCC(F)(F)F)c4)cnc3c2)ncc1F [Example 182] | 2.5 | IC50 [2, 5]: 10 µM
Nc1ccnc(-c2ccn3c(-c4cccc(NC(=O)NCC(F)(F)F)c4)cnc3c2)c1 [Example 108, 1-{3-[7-(4-Amino-pyridin-2-yl)-imidazo[1,2-a]pyridin-3-yl]-phenyl}-3-(2,2,2-trifluoro-ethyl)-urea diformate] | 1.2 | inhibition at 10 µM [2, 3]: 46%
Nc1nc(-c2ccn3c(-c4cncc(NC(=O)NCC(F)(F)F)c4)cnc3c2)ncc1F [Example 168] | 0.43 | inhibition at 10 µM [2, 3]: 0%
O=C(Nc1cccc(-c2cnc3cc(-c4ccc(F)cc4)ccn23)c1)NC1CC1 [Example 28, 1-Cyclopropyl-3-{3-[7-(4-fluorophenyl)imidazo[1,2-a]pyridin-3-yl]phenyl}urea] | 0.17 | inhibition at 10 µM [2, 3]: 35%
O=C(NCC(F)(F)F)Nc1cccc(-c2cnc3cc(-c4ccc(CO)cn4)ccn23)c1 [Example 92, 1-{3-[7-(5-Hydroxymethyl-pyridin-2-yl)-imidazo[1,2-a]pyridin-3-yl]-phenyl}-3-(2,2,2-trifluoro-ethyl)-urea formate] | 0.11 | IC50 [2, 4]: 0.53 µM
Nc1cnc(-c2ccn3c(-c4cccc(NC(=O)NCC(F)(F)F)c4)cnc3c2)cn1 [Example 85, 1-{3-[7-(5-Amino-pyrazin-2-yl)-imidazo[1,2-a]pyridin-3-yl]-phenyl}-3-(2,2,2-trifluoro-ethyl)-urea formate] | 0.065 | IC50 [2, 4]: 0.17 µM
Cn1cc(-c2ccn3c(-c4cccc(NC(=O)NCC(F)(F)F)c4)cnc3c2)c(CN)n1 [Example 57, 1-{3-[7-(3-Aminomethyl-1-methyl-1H-pyrazol-4-yl)-imidazo[1,2-a]pyridin-3-yl]-phenyl}-3-(2,2,2-trifluoro-ethyl)-urea] | – | inhibition at 3 µM [1, 6]: 40%
O=C(NCC(F)(F)F)Nc1cccc(-c2cnc3cc(-c4ccc(N5CCC5)nn4)ccn23)c1 [Example 82, 1-{3-[7-(6-Azetidin-1-yl-pyridazin-3-yl)-imidazo[1,2-a]pyridin-3-yl]-phenyl}-3-(2,2,2-trifluoro-ethyl)-urea hydrochloride] | 0.0067 | –
O=C(NCC(F)(F)F)Nc1cncc(-c2cnc3cc(-c4cccnn4)ccn23)c1 [Example 20, 1-[5-(7-Pyridazin-3-ylimidazo[1,2-a]pyridin-3-yl)pyridin-3-yl]-3-(2,2,2-trifluoroethyl)urea] | 1.1 | –
O=C(NCC(F)(F)F)Nc1cccc(-c2cnc3cc(C#Cc4cccnc4)ccn23)c1 [Example 11, 1-[3-(7-Pyridin-3-ylethynylimidazo[1,2-a]pyridin-3-yl)phenyl]-3-(2,2,2-trifluoroethyl)urea] | 0.032 | –
Cc1nccn1-c1ccn2c(-c3cccc(NC(=O)NCC(F)(F)F)c3)cnc2c1 [Example 116, 1-{3-[7-(2-Methylimidazol-1-yl)-1,7-dihydroimidazol[1,2-a]pyridin-3-yl]-phenyl}-3-(2,2,2-trifluoroethyl)urea] | 1.9 | –
Nc1cc(C(F)(F)F)nc(-c2ccn3c(-c4cccc(NC(=O)NCC(F)(F)F)c4)cnc3c2)n1 [Compound 322] | – | IC50 [2, 5]: 1.2 µM
O=C(NCC(F)(F)F)Nc1cccc(-c2cnc3cc(-c4ccncc4)ccn23)c1 [Example 83, 1-[3-(7-Pyridin-4-yl-imidazo[1,2-a]pyridin-3-yl)-phenyl]-3-(2,2,2-trifluoro-ethyl)-urea] | 0.012 | –
Nc1cccnc1-c1ccn2c(-c3cccc(NC(=O)NCC(F)(F)F)c3)cnc2c1 [Example 125, 1-{3-[7-(3-Amino-pyridin-2-yl)-imidazo[1,2-a]pyridin-3-yl]-phenyl}-3-(2,2,2-trifluoro-ethyl)-urea hydrochloride] | – | IC50 [2, 4]: 2.1 µM
COc1cc(NC(=O)NCC(F)(F)F)cc(-c2cnc3cc(-c4ccnc(C(F)(F)F)n4)ccn23)c1 [Compound 298] | – | IC50 [2, 5]: 3 µM
Cc1cc(=O)n2nc(-c3ccn4c(-c5cccc(NC(=O)NCC(F)(F)F)c5)cnc4c3)sc2n1 [Example 27, 1-{3-[7-(7-Methyl-5-oxo-5H-[1,3,4]thiadiazolo[3,2-a]pyrimidin-2-yl)imidazo[1,2-a]pyridin-3-yl]phenyl}-3-(2,2,2-trifluoroethyl)urea] | 0.52 | –

— patent publication US8796244B2, “Imidazopyridine derivatives as inhibitors of receptor tyrosine kinases” (Astex Therapeutics Ltd, priority 2008, dated 2014)
